According to patent US20120064174A1, “METHOD FOR STIMULATING HAIR GROWTH” (LEGACY HEALTHCARE HOLDING LTD., priority 2010, published 2012):
Where “and” joins values, the source holds several entries; their conditions need not be identical. Equal values may be shown once.

Test system: scalp of male volunteers
Assay: Double-blind placebo-controlled clinical study, hair diameter measurement by hair clipping
Format: in vivo, human
Conditions: after 32-51 days of treatment, one volunteer per row
Protocol: […] The male volunteers had been under treatment of a 5-alpha-reductase inhibitor treatment (Finasteride 1 mg) started within the last 3 months, or for the last three years. The first objective is to assess if the hair diameter of volunteers under a 5-alpha-reductase inhibitor (Finasteride 1 mg) and Cellium (TRADEMARK) GC 210 mg/mL is higher than on volunteers under a 5-alpha-reductase inhibitor (Finasteride 1 mg) and placebo only. The hair diameters were compared using a starting or initial hair diameter measurement and a post-study hair diameter measurement as quantified later herein. The second objective is to evaluate the cosmetic acceptance in the studied population. A prospective, double-blind, monocentric, randomized testing along with a placebo testing is conducted with two parallel groups. […] Information on self-assessed effectiveness, appreciation, and overall satisfaction was solicited from volunteers using a questionnaire. […] Exemplary secondary criteria include photographic documentation for qualitative purposes and also self-assessed effectiveness, appreciation, and overall satisfaction as indicated by a questionnaire given to participants. […]

## CC(C)(C)NC(=O)[C@H]1CC[C@H]2[C@@H]3CC[C@H]4NC(=O)C=C[C@]4(C)[C@H]3CC[C@]12C [Finasteride + Placebo, Finasteride]
Relative to first diameter
  Variation of diameter (in %): 4.4% and −0.7% and −2.4%
Second minus first diameter
  Variation of diameter (μm): 2.2 μm and −0.3 μm and −1.2 μm
